{"source": "patent US20100009395A1", "about": "“LUMINESCENCE ASSAY UTILIZING A GENETICALLY MODIFIED CELL LINE” (priority 2006, published 2010)", "type_in_all_cases": "cell-based", "key": {"[1]": {"system": "I-kappa B-luciferase (IkB-Luc) fusion protein", "assay": "IkB-Luc degradation luciferase (luminescence imaging) assay in stably transfected HCT-116 cells", "settings": "human urine sample two hours after ingestion of 8 g curcumin", "experimental": "This construct has been transfected into HeLa and HCT-116 cells.\nThe substrate for luciferase, D-luciferin was also added to the cells at the same time, and the cells were incubated in extremely light-tight, low-background imaging chamber, at 37° C. Photon luminescence emitted from the cells is detected with a back-thinned CCD camera, designed for high-efficiency photon detection, particularly in the important red region of the spectrum.\nThe imaging assay cells were plated in a 24 well dish and allowed to grow for 24 hours; they were then treated with 10 ng/ml TNF-alpha, the substrate for luciferase, D-luciferin was also added at the same time, the cells were then incubated in a light-tight, low background imaging chamber, at 37° C.\nPhoton luminescence emitted from the cells was detected with a back-thinned CCD camera, designed for high-efficiency photon detection. The CCD is cooled and the electronic readout is optimized so that the data gathered extremely low noise.\nHCT-116 cells stably expressing I-kB-Luc were incubated for 2 hours with increasing concentrations (0-1000 μl) control or post-curcumin ingested urine. Subsequently, some of the cells were treated with TNF-alpha. The level of I-kB degradation was determined by the luciferase assay. […] Similar experiments were conducted with black raspberry extracts."}, "COX-2 gene expression": {"system": "COX-2 gene expression", "assay": "COX-2 expression in HCT-116 cells after induction with TNF-alpha, EGF or IL-1", "settings": "1 hour pre-incubation, then TNF-alpha, EGF or IL-1 for 1 hour", "experimental": "Endogenous levels of COX-2 were determined following addition of the three botanical extracts. After incubating the HCT-116 cells with the different fractions for 1 hour, the cells were treated with TNF-alpha, EGF or IL-1 […] (all known inducers of COX-2 expression) for an additional 1 hour to induce high levels of COX-2 expression."}, "[2]": {"system": "native I-kappa B and I-kappa B-luciferase (IkB-Luc)", "assay": "Western blot of total cell lysates from TNF-alpha-treated HCT-116 cells", "settings": "incubation with TNF-alpha", "experimental": "In this experiment the degradation of I-kappa B was investigated. The I-kappa B was stably expressed as a fusion protein with the firefly luciferase in HCT-116 colon cancer cells. Presence of I-kappa B can then be monitored by luminescence activity. It was determined that the fusion protein is subject to similar levels of degradation in response to a stimulus such as tumor necrosis factor-alpha (TNF-alpha), a known inducer of phosphorylation and degradation of I-kappa B, as would be the case with the native of I-kappa B. Western blot analyses of total cell lysates from TNF-alpha-treated cells were subjected to western blot analyses. Both, native I-kappa B and I-kappa B-luciferase (IkB-Luc) levels were decreased within 20 minutes of incubation with TNF-alpha."}}, "note": "“Also recorded” adds a separate entry of the source."}
{"compound": "COc1cc(/C=C/C(=O)CC(=O)/C=C/c2ccc(O)c(OC)c2)ccc1O", "note": "[curcumin]", "values": [{"measurement": "protection of IkB-Luc from TNF-alpha-mediated degradation", "setting": "[1]", "value": "significant increase in the protection of the IkB-Luc from TNF-alpha-mediated degradation; also recorded: reduced the TNF degradation of I kappa B-Luc"}, {"measurement": "protection of IkB-Luc from TNF-alpha-mediated degradation", "setting": "[1]; listed as cucurmin", "value": "significantly inhibited the IkB-Luc degradation"}, {"measurement": "COX-2 gene expression", "setting": "COX-2 gene expression", "value": "inhibitor of COX-2 gene expression"}]}
{"compound": "TNF-alpha", "values": [{"measurement": "time to decrease of native I-kappa B and IkB-Luc levels", "setting": "[2]", "value": "≤ 20", "unit": "min"}]}
